Molecular target: T1, WHMpeV (MpeV from WH8020) (Synechococcus sp. WH 8020, UniProt Q02178)
T1 construct: His-tagged, in pCDF-Duet, co-expressed in E. coli with RS9916 cpeS, cpeZ, ho1/pebS and a PE beta-subunit
T1 sequence (Q02178 1-301): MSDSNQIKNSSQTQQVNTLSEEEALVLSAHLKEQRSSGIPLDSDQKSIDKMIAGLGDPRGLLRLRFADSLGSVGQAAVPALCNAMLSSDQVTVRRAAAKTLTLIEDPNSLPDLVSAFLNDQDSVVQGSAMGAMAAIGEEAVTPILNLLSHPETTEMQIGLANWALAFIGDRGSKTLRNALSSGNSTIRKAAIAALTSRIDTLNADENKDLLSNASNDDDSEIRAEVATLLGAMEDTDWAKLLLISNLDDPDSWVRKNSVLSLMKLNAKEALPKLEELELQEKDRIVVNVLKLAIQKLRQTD
Assay: co-expression in E. coli; absorbance, zinc fluorescence, LC-MS-MS of the product subunit
Type: cell-based

Row | SMILES | co-expression in E. coli; absorbance, zinc fluorescence, LC-MS-MS of the product (covalent, protein-bound product on RSCpeB, WHMpeB and WHCpeB H141L) | co-expression in E. coli; absorbance, zinc fluorescence, LC-MS-MS of the product (bilin acceptor WHCpeB (ligation without isomerization), RSCpeB or WHMpeB (ligation with isomerization), with RSCpeZ and RSCpeS)
1 | C=CC1=C(C)[C@@H](CC2=N/C(=C\c3[nH]c(C[C@H]4NC(=O)C(C)=C4C=C)c(C)c3CCC(=O)O)C(CCC(=O)O)=C2C)NC1=O [phycourobilin] | WHMpeV is capable of isomerizing activity on both WHMpeB and RSCpeB | 
2 | C=CC1=C(C)C(CC2=NC(=Cc3[nH]c(C=C4NC(=O)C(C)C4=CC)c(C)c3CCC(=O)O)C(CCC(=O)O)=C2C)NC1=O (centres unmarked) [phycoerythrobilin] |  | WHMpeV acts as a PEB lyase-isomerase, doubly ligating PUB on RSCpeB

Source: PMC9705338, “The phycoerythrobilin isomerization activity of MpeV in Synechococcus sp. WH8020 is prevented by the presence of a histidine at position 141 within its phycoerythrin-I β-subunit substrate” (Frontiers in Microbiology, 2022)
